Laboratory results from US20260356856A1, “KRAS G12S AND G12C INHIBITORS” (MIRATI THERAPEUTICS, INC., priority 2023, published 2026).

Experiments:
[1] = target: T1, KRas-mediated phosphorylation of ERK in A549 cells (Homo sapiens, UniProt P01116, G12S); assay: Inhibition of KRas-mediated phosphorylation of ERK (HTRF), A549 cells; format: cell-based; conditions: HTRF pERK, 3 h incubation
T1 construct: pERK HTRF read-out

[2] = target: T2, KRas WT (Homo sapiens, UniProt P01116); assay: KRas binding assay, TR-FRET displacement of Cy5 labelled tracer; conditions: 60-minute incubation at room temperature, 1% DMSO, pH 7.5
T2 construct: Biotinylated KRas (corresponding to amino acids 1-169, produced at Accelegan Inc.); biotin (biotinylated); purchased Accelegan Inc
Method in brief: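 TR-FRET tracer-displacement readout after 60 min at room temperature, using KRas residues 1-169 (biotinylated) with terbium streptavidin and a Cy5 tracer. Buffer: 50 mM HEPES pH 7.5, 5 mM MgCl2, 0.005% Tween-20, 1 mM DTT, 1% DMSO final. IC50 from 4-parameter fit of POC data.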

[3] = target: T3, KRas G12C (Homo sapiens, UniProt P01116, G12C); assay: as above; conditions: 60-minute incubation at room temperature, 1% DMSO, pH 7.5
T3 construct: Biotinylated KRas (corresponding to amino acids 1-169, produced at Accelegan Inc.); biotin (biotinylated); purchased Accelegan Inc
Method in brief: (§1)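 Compound competes with tracer for biotin-labelled KRas (amino acids 1-169) bound to terbium-streptavidin. Incubation runs 60 minutes at room temperature, final DMSO 1%. IC50 values derive from a 4-parameter fit.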

[4] = target: T4, KRas G12S (Homo sapiens, UniProt P01116, G12S); assay: as above; conditions: 60-minute incubation at room temperature, 1% DMSO, pH 7.5
T4 construct: Biotinylated KRas (corresponding to amino acids 1-169, produced at Accelegan Inc.); biotin (biotinylated); purchased Accelegan Inc
Method in brief: as §1

[5] = target: T5, KRas-mediated phosphorylation of ERK in H358 cells (Homo sapiens, UniProt P01116, G12C); assay: Inhibition of KRas-mediated phosphorylation of ERK (HTRF), H358 cells; format: cell-based; conditions: HTRF pERK, 3 h incubation
T5 construct: pERK HTRF read-out

[6] = target: T6, KRas-mediated phosphorylation of ERK in MKN1 cells (Homo sapiens, UniProt P01116); assay: Inhibition of KRas-mediated phosphorylation of ERK (HTRF), MKN1 cells; format: cell-based; conditions: MKN1 cells (KRas WT); HTRF pERK; 3 h incubation
T6 construct: pERK HTRF read-out
Method: Inhibition of KRas Phosphorylation of ERK (HTRF) by Exemplary Compounds of Formula (Ia) or (Ib)
Cisbio HTRF Advanced pERK Assay Catalog #64AERPEH • Cells: MKN1, PSN1 • Procedure: • 1. Day 1: Seed 6,000 cells/well −25 μl/well in 384-well white solid bottom plate; RPM1_10% FBS. Incubate overnight at 37 °C/5% CO2. • 2.

T6 sequence (P01116 1-188 isoform P01116-2): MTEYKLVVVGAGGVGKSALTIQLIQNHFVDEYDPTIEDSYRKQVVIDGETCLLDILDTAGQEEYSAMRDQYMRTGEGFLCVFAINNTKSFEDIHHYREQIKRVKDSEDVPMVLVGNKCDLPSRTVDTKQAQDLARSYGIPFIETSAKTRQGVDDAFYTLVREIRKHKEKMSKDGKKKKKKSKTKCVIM
T5 sequence (P01116 1-188 isoform P01116-2 G12C): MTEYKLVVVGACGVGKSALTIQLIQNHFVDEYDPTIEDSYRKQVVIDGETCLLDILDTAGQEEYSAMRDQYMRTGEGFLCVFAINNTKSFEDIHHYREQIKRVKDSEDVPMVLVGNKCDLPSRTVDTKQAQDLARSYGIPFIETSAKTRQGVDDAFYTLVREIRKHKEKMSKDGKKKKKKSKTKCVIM
T2 sequence (P01116 1-169 isoform P01116-2): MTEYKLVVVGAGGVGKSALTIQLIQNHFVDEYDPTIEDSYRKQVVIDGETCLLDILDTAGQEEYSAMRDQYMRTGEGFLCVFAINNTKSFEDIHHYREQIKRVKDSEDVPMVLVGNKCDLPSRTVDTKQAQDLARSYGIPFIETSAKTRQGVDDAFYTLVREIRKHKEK
T3 sequence (P01116 1-169 isoform P01116-2 G12C): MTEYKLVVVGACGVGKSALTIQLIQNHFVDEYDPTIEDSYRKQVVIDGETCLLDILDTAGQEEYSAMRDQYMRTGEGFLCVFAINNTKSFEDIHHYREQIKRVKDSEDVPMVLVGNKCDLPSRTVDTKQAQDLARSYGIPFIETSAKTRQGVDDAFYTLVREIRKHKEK
T4 sequence (P01116 1-169 isoform P01116-2 G12S): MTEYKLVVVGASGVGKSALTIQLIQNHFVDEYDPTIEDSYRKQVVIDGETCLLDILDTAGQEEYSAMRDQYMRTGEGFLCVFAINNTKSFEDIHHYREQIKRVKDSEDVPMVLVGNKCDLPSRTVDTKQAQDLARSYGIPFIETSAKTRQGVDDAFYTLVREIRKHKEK
T1 sequence (P01116 1-188 isoform P01116-2 G12S): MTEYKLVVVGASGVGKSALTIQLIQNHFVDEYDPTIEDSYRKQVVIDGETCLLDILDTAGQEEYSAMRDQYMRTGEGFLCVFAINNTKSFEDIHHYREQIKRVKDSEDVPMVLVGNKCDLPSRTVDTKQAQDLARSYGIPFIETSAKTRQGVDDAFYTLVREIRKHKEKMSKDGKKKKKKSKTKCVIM

| SMILES | IC50 [1] [nM] | IC50 [2] [nM] | IC50 [3] [nM] | IC50 [4] [nM] | IC50 [5] [nM] | IC50 [6] [nM] |
| --- | --- | --- | --- | --- | --- | --- |
| Cc1ccn(C(=O)C2CCN(c3nc(OC[C@@]45CCCN4C[C@H](F)C5)nc4c(F)c(-c5ccc(F)c6sc(N)c(C#N)c56)c(Cl)cc34)C2)n1 (stereo partly drawn) [Example 139, 2-amino-4-(6-chloro-8-fluoro-2-(((2R,7aS)-2-fluorotetrahydro-1H-pyrrolizin-7a(5H)-yl)methoxy)-4-(3-(3-methyl-1H-pyrazole-1-carbonyl)pyrrolidin-1-yl)quinazolin-7-yl)-7-fluorobenzo[b]thiophene-3-carbonitrile] | 46 | 16 | 5 | 5 | 412 | 1210 |
| COc1ccn(C(=O)C2CCCN(c3nc(OC[C@@]45CCCN4C[C@H](F)C5)nc4c(F)c(-c5ccc(F)c6sc(N)c(C#N)c56)c(Cl)cc34)CC2)n1 (stereo partly drawn) [Example 140, 2-amino-4-(6-chloro-8-fluoro-2-(((2R,7aS)-2-fluorotetrahydro-1H-pyrrolizin-7a(5H)-yl)methoxy)-4-(4-(3-methoxy-1H-pyrazole-1-carbonyl)azepan-1-yl)quinazolin-7-yl)-7-fluorobenzo[b]thiophene-3-carbonitrile] | 8 | 15 | 11 | 3 | 22 | 178 |
| Cc1ccn(C(=O)CCCN(C)c2nc(OC[C@@]34CCCN3C[C@H](F)C4)nc3c(F)c(-c4ccc(F)c5sc(N)c(C#N)c45)c(Cl)cc23)n1 [Example 141, 2-amino-4-(6-chloro-8-fluoro-2-(((2R,7aS)-2-fluorotetrahydro-1H-pyrrolizin-7a(5H)-yl)methoxy)-4-(methyl (4-(3-methyl-1H-pyrazol-1-yl)-4-oxobutyl)amino)quinazolin-7-yl)-7-fluorobenzo[b]thiophene-3-carbonitrile] | 10 | 11 | < 2 | < 2 | 26 | 363 |
| Cc1ccn(C(=O)CCCNc2nc(OC[C@@]34CCCN3C[C@H](F)C4)nc3c(F)c(-c4ccc(F)c5sc(N)c(C#N)c45)c(Cl)cc23)n1 [Example 142, 2-amino-4-(6-chloro-8-fluoro-2-(((2R,7aS)-2-fluorotetrahydro-1H-pyrrolizin-7a(5H)-yl)methoxy)-4-((4-(3-methyl-1H-pyrazol-1-yl)-4-oxobutyl)amino)quinazolin-7-yl)-7-fluorobenzo[b]thiophene-3-carbonitrile] | 7 | 10 | < 2 | < 2 | 8 | 531 |
| CCc1c(F)ccc2cc(O)cc(N3CCc4c(nc(OC[C@@]56CCCN5C[C@H](F)C6)nc4N4CCCC(C(=O)n5ccc(C)n5)CC4)C3)c12 (stereo partly drawn) [Example 145, (1-(7-(8-ethyl-7-fluoro-3-hydroxynaphthalen-1-yl)-2-(((2R,7aS)-2-fluorotetrahydro-1H-pyrrolizin-7a(5H)-yl)methoxy)-5,6,7,8-tetrahydropyrido[3,4-d]pyrimidin-4-yl)azepan-4-yl)(3-methyl-1H-pyrazol-1-yl)methanone] | 137 | 331 | 237 | 27 | 2810 | 4010 |
| CCc1c(F)ccc2cc(O)cc(N3CCc4c(nc(OC[C@@]56CCCN5C[C@H](F)C6)nc4N4CCC(C(=O)n5ccc(C)n5)CC4)C3)c12 [Example 146, (1-(7-(8-ethyl-7-fluoro-3-hydroxynaphthalen-1-yl)-2-(((2R,7aS)-2-fluorotetrahydro-1H-pyrrolizin-7a(5H)-yl)methoxy)-5,6,7,8-tetrahydropyrido[3,4-d]pyrimidin-4-yl)piperidin-4-yl)(3-methyl-1H-pyrazol-1-yl)methanone] | > 10000 | 412 | 676 | 477 | 3830 | 2530 |
| CCc1c(F)ccc2cc(O)cc(-c3ncc4c(N5CCN(C(=O)n6ccnc6)CC5)nc(OC[C@@]56CCCN5C[C@H](F)C6)nc4c3F)c12 [Example 150, (4-(7-(8-ethyl-7-fluoro-3-hydroxynaphthalen-1-yl)-8-fluoro-2-(((2R,7aS)-2-fluorotetrahydro-1H-pyrrolizin-7a(5H)-yl)methoxy)pyrido[4,3-d]pyrimidin-4-yl)piperazin-1-yl)(1H-imidazol-1-yl)methanone] | 1580 | 2 | 5 | 3 | 39 | 40 |
| CCc1c(F)ccc2cc(O)cc(-c3ncc4c(N5CCN(C(=O)n6ccnn6)CC5)nc(OC[C@@]56CCCN5C[C@H](F)C6)nc4c3F)c12 [Example 151, (4-(7-(8-ethyl-7-fluoro-3-hydroxynaphthalen-1-yl)-8-fluoro-2-(((2R,7aS)-2-fluorotetrahydro-1H-pyrrolizin-7a(5H)-yl)methoxy)pyrido[4,3-d]pyrimidin-4-yl)piperazin-1-yl)(1H-1,2,3-triazol-1-yl)methanone] | 1210 | 9 | 12 | 18 | 14 | 72 |
| CCc1c(F)ccc2cc(O)cc(-c3ncc4c(N5CCC(C(=O)N6CCCCC6=O)CC5)nc(OC[C@@]56CCCN5C[C@H](F)C6)nc4c3F)c12 [Example 154, 1-(1-(7-(8-ethyl-7-fluoro-3-hydroxynaphthalen-1-yl)-8-fluoro-2-(((2R,7aS)-2-fluorotetrahydro-1H-pyrrolizin-7a(5H)-yl)methoxy)pyrido[4,3-d]pyrimidin-4-yl)piperidine-4-carbonyl)piperidin-2-one] | 6280 | 131 | 338 | 257 | 7230 | 2870 |
| CCc1c(F)ccc2cc(O)cc(-c3ncc4c(N5CCC(C(=O)N(C)C(C)=O)CC5)nc(OC[C@@]56CCCN5C[C@H](F)C6)nc4c3F)c12 [Example 155, N-acetyl-1-(7-(8-ethyl-7-fluoro-3-hydroxynaphthalen-1-yl)-8-fluoro-2-(((2R,7aS)-2-fluorotetrahydro-1H-pyrrolizin-7a(5H)-yl)methoxy)pyrido[4,3-d]pyrimidin-4-yl)-N-methylpiperidine-4-carboxamide] | 445 | 140 | 204 | 135 | 2530 | 671 |
| CCc1c(F)ccc2cc(O)cc(-c3ncc4c(N5CC[C@@H]6[C@H](C5)[C@@H]6C(=O)n5ccc(C)n5)nc(OC[C@@]56CCCN5C[C@H](F)C6)nc4c3F)c12 [Example 157, ((1S,6R,7R)-3-(7-(8-ethyl-7-fluoro-3-hydroxynaphthalen-1-yl)-8-fluoro-2-(((2R,7aS)-2-fluorotetrahydro-1H-pyrrolizin-7a(5H)-yl)methoxy)pyrido[4,3-d]pyrimidin-4-yl)-3-azabicyclo[4.1.0]heptan-7-yl)(3-methyl-1H-pyrazol-1-yl)methanone] | 7590 | 32 | 84 | 122 | 2110 | 955 |
| CCc1c(F)ccc2cc(O)cc(-c3ncc4c(NC[C@H]5C[C@@H]5C(=O)n5ccc(C)n5)nc(OC[C@@]56CCCN5C[C@H](F)C6)nc4c3F)c12 [Example 159, ((1S,2S)-2-(((7-(8-ethyl-7-fluoro-3-hydroxynaphthalen-1-yl)-8-fluoro-2-(((2R,7aS)-2-fluorotetrahydro-1H-pyrrolizin-7a(5H)-yl)methoxy)pyrido[4,3-d]pyrimidin-4-yl)amino)methyl)cyclopropyl)(3-methyl-1H-pyrazol-1-yl)methanone] | 6 | 15 | 6 | 4 | 108 | 57 |
| CCc1c(F)ccc2cc(O)cc(-c3ncc4c(N5C[C@H]6C[C@H](C(=O)n7ccc(C)n7)[C@H]6C5)nc(OC[C@@]56CCCN5C[C@H](F)C6)nc4c3F)c12 [Example 161, ((1S,5S,6S)-3-(7-(8-ethyl-7-fluoro-3-hydroxynaphthalen-1-yl)-8-fluoro-2-(((2R,7aS)-2-fluorotetrahydro-1H-pyrrolizin-7a(5H)-yl)methoxy)pyrido[4,3-d]pyrimidin-4-yl)-3-azabicyclo[3.2.0]heptan-6-yl)(3-methyl-1H-pyrazol-1-yl)methanone] | 717 | 282 | 86 | 185 | > 10000 | 7280 |
| CCc1c(F)ccc2cc(O)cc(-c3ncc4c(N5C[C@@H]6C[C@@H](C(=O)n7ccc(C)n7)[C@@H]6C5)nc(OC[C@@]56CCCN5C[C@H](F)C6)nc4c3F)c12 [Example 162, ((1R,5R,6R)-3-(7-(8-ethyl-7-fluoro-3-hydroxynaphthalen-1-yl)-8-fluoro-2-(((2R,7aS)-2-fluorotetrahydro-1H-pyrrolizin-7a(5H)-yl)methoxy)pyrido[4,3-d]pyrimidin-4-yl)-3-azabicyclo[3.2.0]heptan-6-yl)(3-methyl-1H-pyrazol-1-yl)methanone] | 6480 | 1050 | 673 | 491 | > 10000 | > 10000 |
